The results in this text go back to ChEMBL document CHEMBL4219217, “Structure-activity relationship study of a series of caspase inhibitors containing γ-amino acid moiety for treatment of cholestatic liver disease” (Bioorg Med Chem Lett, 2018).

Series [1] is described as follows: Cmax in C57BL/6J mouse at 10 mg/kg, po after 0.25 to 24 hrs by LC-MS/MS method. The series is classed as ADME, organism-based. Further details: dose 10 mg/kg, route oral. As to conditions: in vivo.
Series [2] has as its system Rattus norvegicus. Description: Reduction in serum indirect bilirubin level in Sprague-Dawley rat model of alpha-naphthylisothiocyanate-induced cholestatic liver disease at 6 mg/kg administered intragastrically once daily for 1 week. The series is classed as functional, organism-based.
For series [3], the system named is Rattus norvegicus. Description: Reduction in serum direct bilirubin level in Sprague-Dawley rat model of alpha-naphthylisothiocyanate-induced cholestatic liver disease at 6 mg/kg administered intragastrically once daily for 1 week. The series is classed as functional, organism-based.
A short description of series [4]: AUC in C57BL/6J mouse liver at 1 mg/kg, po after 0.5 to 6 hrs by LC-MS/MS method. As to conditions: in vivo. Further details: time lower 0.5 hr, dose 1 mg/kg, time upper 6 hr, route oral. The series is classed as ADME, organism-based.
The subject of series [5] is Rattus norvegicus. Description: Reduction in serum total bilirubin level in Sprague-Dawley rat model of alpha-naphthylisothiocyanate-induced cholestatic liver disease at 6 mg/kg administered intragastrically once daily for 1 week. The class given is functional, organism-based.
For series [6], the system named is Mus musculus. Description: (§1) AUC (0 to infinity) in C57BL/6J mouse at 10 mg/kg, po after 0.25 to 24 hrs by LC-MS/MS method. The series is classed as ADME, organism-based. On the set-up: dose 10 mg/kg, time infinity, route oral. To be noted: in vivo.
Series [7] deals with Mus musculus. The series is described as follows: AUC (0 to infinity) in C57BL/6J mouse at 1 mg/kg, iv after 0.25 to 24 hrs by LC-MS/MS method. The series is classed as ADME, organism-based. To be noted: in vivo. On the set-up: dose 1 mg/kg, time infinity, route intravenous.
Series [8] in a line: Stability in rat plasma assessed as compound remaining level at 100 uM incubated for 2 hrs by LC-MS/MS method. The class given is ADME, cell-free. As to conditions: for remaining at 2 h, 100 µM: read-out: Stability; for Stability: 2 h, 100 µM.
The target in a further series is T1, Caspase-3 (Homo sapiens, UniProt P42574).
T1 sequence (P42574 whole entry): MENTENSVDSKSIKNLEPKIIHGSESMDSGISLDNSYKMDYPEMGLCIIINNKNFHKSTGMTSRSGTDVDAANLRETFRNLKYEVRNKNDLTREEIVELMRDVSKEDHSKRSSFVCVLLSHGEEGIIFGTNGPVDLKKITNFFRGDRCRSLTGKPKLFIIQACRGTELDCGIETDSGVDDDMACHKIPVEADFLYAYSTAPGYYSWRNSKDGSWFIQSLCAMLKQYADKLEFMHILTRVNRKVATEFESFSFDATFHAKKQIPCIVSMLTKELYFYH
The series is described as follows: Inhibition of Anti-Fas antibody-induced caspase-3 activity in human Jurkat E6-1 cells using Ac-DEVD-AMC substrate by fluorescence based assay. The series is classed as cell-based.

Series [9] in a line: Stability in mouse plasma assessed as compound remaining level at 100 uM incubated for 2 hrs by LC-MS/MS method. The class given is ADME, cell-free.
A short description of series [10]: as §1. Further details: dose 10 mg/kg, time infinity, route oral. The class given is ADME, organism-based. As to conditions: C57BL/6J, in vivo.

Activity calls are given as the source filed them. No cut-off for these calls is given here.

Broadly, the Cmax is the maximum level reached in the sampled fluid or tissue. `O=C(O)C[C@H](NC(=O)C1CCN(C(=O)C2CCCC2)CC1)C(=O)COc1c(F)c(F)cc(F)c1F` yielded a Cmax in series [1] of 405 nM. The outcome in the series on Rattus norvegicus [2], in the series with Rattus norvegicus [3] and with Rattus norvegicus [5] was Active. Moreover, the AUC is 2219 nmol·h/kg in series [4], 1710 nM·h in the series on Mus musculus [6] and 852 nM·h in the series on Mus musculus [7].
For `CC(C)(C)c1ccccc1NC(=O)C(=O)N1CCC[C@@H](C(=O)N[C@@H](CC(=O)O)C(=O)COc2c(F)c(F)cc(F)c2F)C1`, the remaining at 2 h, 100 µM in [8] came out at 67%.
Take `O=C(O)C[C@H](NC(=O)C1CCN(C(=O)C2CC(F)(F)C2)CC1)C(=O)COc1c(F)c(F)cc(F)c1F`: in [4], the AUC came to 334 nmol·h/kg.
In general, IC50 refers to the point on the concentration scale where inhibition reaches its midpoint. On to `C[C@H](NC(=O)C(=O)Nc1ccccc1C(C)(C)C)C(=O)N[C@@H](CC(=O)O)C(=O)COc1c(F)c(F)cc(F)c1F` [EMRICASAN], for which the peak level in series [1] (Cmax) was 227 nM. The molecule further yielded a half-inhibitory concentration (IC50) at Caspase-3 of 6 nM. Further, the AUC in [4] worked out at 2350 nmol·h/kg; with Mus musculus [6], 197 nM·h; in the series on Mus musculus [7], 446 nM·h.
Regarding `O=C(O)C[C@H](NC(=O)C1CCN(C(=O)c2cccs2)CC1)C(=O)COc1c(F)c(F)cc(F)c1F`, the AUC in series [4] was found to be 804 nmol·h/kg.
Consider `O=C(O)C[C@H](NC(=O)C1CCN(C(=O)OC2CCCC2)CC1)C(=O)COc1c(F)c(F)cc(F)c1F`, for which the Stability entry in [8] and in [9] was “Stable” in each case.
`O=C(O)C[C@H](NC(=O)C1CCN(C(=O)Oc2ccccc2Cl)CC1)C(=O)COc1c(F)c(F)cc(F)c1F`: the Stability entry in [8] and in [9] was “Unstable” throughout.
One may read the AUC(0-inf) as total exposure, with the tail of the curve extrapolated. High values mean more exposure, low ones less exposure. For the molecule `CC(C)(C)c1ccccc1NC(=O)C(=O)N1CCC(C(=O)N[C@@H](CC(=O)O)C(=O)COc2c(F)c(F)cc(F)c2F)CC1`, the remaining at 2 h, 100 µM in [8] worked out at 93%. In [1], this molecule showed a Cmax of 1640 nM. The AUC(0-inf) in series [10] stood at 3.66 µM·h.
